Data as given in patent publication US11547681B2, “N-acylethanolamide derivatives and uses thereof” (ELIEM THERAPEUTICS, INC., priority 2016, dated 2023).

Assay: Liver microsomal stability, human
Details: for microsomal CLint / half-life / half-life at 1 μM: microsomes
Method: The reaction mixture, minus cofactors, was prepared as described below. The test article was added into the reaction mixture at a final concentration of 1 μM. […] An aliquot of the reaction mixture (without cofactor) was equilibrated in a shaking water bath at 37° C. for 3 minutes. The reaction was initiated by the addition of cofactor, and the mixture was incubated in a shaking water bath at 37° C. Aliquots (100 μL) were withdrawn at 0, 10, 20, 30, and 60 minutes. All samples were immediately combined with 400 μL of ice-cold 50/50 acetonitrile/H2O containing 0.1% formic acid and internal standard to terminate the reaction. The samples were then mixed and centrifuged to precipitate proteins. Calibration standards were prepared in matched matrix. All samples and standards were assayed by LC-MS/MS using electrospray ionization for both the dosed prodrug I-9 and the expected drug (PEA). Analytical conditions are outlined in Appendix 4-1. The test article concentration at each time point was compared to the test article concentration at time 0 to determine the percent remaining at each time point. Half-lives were calculated using GraphPad software, fitting to a single-phase exponential decay equation.
Reaction mixture, minus cofactors, was prepared as described below. Test article was added into the reaction mixture at a final concentration of 1 μM. […] An aliquot of the reaction mixture (without cofactor) was equilibrated in a shaking water bath at 37° C. for 3 minutes. The reaction was initiated by the addition of cofactor, and the mixture was incubated in a shaking water bath at 37° C. Aliquots (100 μL) were withdrawn at 0, 10, 20, 30, and 60 minutes. Test article samples were immediately combined with 300 μL of ice-cold acetonitrile containing 1% formic acid. Control samples were immediately combined with 400 μL of ice-cold 50/50 acetonitrile (ACN)/dH2O containing 0.1% formic acid and internal standard to terminate the reaction. Samples were then mixed and centrifuged to precipitate proteins. Calibration standards were prepared in matched matrix. Samples and standards were assayed by LC-MS/MS using electrospray ionization for both dosed prodrug and expected drug (PEA). Analytical conditions are outlined in Appendix 8-1. Test article concentration at each time point was compared to test article concentration at time 0 to determine the percent remaining at each time point. Half-lives were calculated using GraphPad software, fitting to a single-phase exponential decay equation.
Reaction mixture, minus cofactors, was prepared as described below. Test article was added into the reaction mixture at a final concentration of 1 μM. […] An aliquot of the reaction mixture (without cofactor) was equilibrated in a shaking water bath at 37° C. for 5 minutes. Reaction was initiated by the addition of cofactor, and the mixture was incubated in a shaking water bath at 37° C. Aliquots (100 μL) were withdrawn at 0, 10, 20, 30, and 60 minutes. Test article samples were immediately combined with 300 μL of ice-cold acetonitrile containing 1% formic acid. Control samples were immediately combined with 400 μL of ice-cold 50/50 acetonitrile (ACN)/dH2O containing 0.1% formic acid and internal standard to terminate the reaction. Samples were then mixed and centrifuged to precipitate proteins. Calibration standards were prepared in matched matrix. Samples and standards were assayed by LC-MS/MS using electrospray ionization for both the dosed prodrug and the expected drug (PEA). Analytical conditions are outlined in Appendix 10-1. Test article concentration at each time point was compared to the test article concentration at time 0 to determine the percent remaining at each time point. Half-lives were calculated using GraphPad software, fitting to a single-phase exponential decay equation.
Reaction mixture, minus cofactors, was prepared as described below. Test article was added into the reaction mixture at a final concentration of 1 μM.

**Q.** For C[C@]12CC[C@H]3[C@@H](CCC4=CC(=O)CC[C@@]43C)[C@@H]1CC[C@@H]2O [Testosterone, testosterone, reference compound], which “Clint, control compound” value (Example 4 control run) is on record?
**A.** 0.0792 ml/min/mg protein

**Q.** And the “Half-life, control compound” value (Example 4 control run)?
**A.** 17 min

**Q.** And the microsomal CLint (both, human, CLint, Control Compound, Human liver microsomes)?
**A.** 66.7 µL/min/mg

**Q.** What about the microsomal CLint (both, human, CLint, Control compound, Human liver microsomes) of the same compound?
**A.** 50.5 µL/min/mg

**Q.** What about the microsomal CLint (both, human, CLint, Human liver microsomes, control compound) of the same compound?
**A.** 66.7 µL/min/mg

**Q.** And the microsomal CLint (both, human, CLint, control compound, human liver microsomes)?
**A.** 151 µL/min/mg

**Q.** What about the half-life (both, human, Control Compound, Human liver microsomes) of the same compound?
**A.** 21 min

**Q.** What about the half-life (both, human, Control compound, Human liver microsomes) of the same compound?
**A.** 27 min

**Q.** And the half-life at 1 μM (both, human, Human liver microsomes)?
**A.** 21 min

**Q.** And the microsomal CLint (male, Sprague-Dawley, CLint, Control Compound, Rat liver microsomes)?
**A.** 1010 µL/min/mg

**Q.** What about the microsomal CLint (male, Sprague-Dawley, CLint, Control compound, Rat liver microsomes) of the same compound?
**A.** 760 µL/min/mg

**Q.** And the microsomal CLint (male, Sprague-Dawley, CLint, Rat liver microsomes, control compound)?
**A.** 1010 µL/min/mg

**Q.** And the microsomal CLint (male, Sprague-Dawley, CLint, control compound, rat liver microsomes)?
**A.** 911 µL/min/mg

**Q.** And the microsomal CLint (male, Sprague-Dawley, Clint, control compound, Example 4 control run)?
**A.** 1030 µL/min/mg

**Q.** What about the half-life (male, Sprague-Dawley, Control Compound, Rat liver microsomes) of the same compound?
**A.** 1.4 min

**Q.** What about the half-life (male, Sprague-Dawley, Control compound, Rat liver microsomes) of the same compound?
**A.** 1.8 min

**Q.** What about the half-life at 1 μM (male, Sprague-Dawley, Rat liver microsomes) of the same compound?
**A.** 1.4 min

**Q.** What about the half-life (male, Sprague-Dawley, control compound, Example 4 control run) of the same compound?
**A.** 1.4 min

**Q.** And the half-life (male, Sprague-Dawley, control compound, rat liver microsomes)?
**A.** 1.5 min
